TGI data for eight compounds are collected here from PubChem BioAssay (NCI).

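A five-concentration, 48-hour dose response in 96-well plates underlies each endpoint, interpolated linearly between surrounding concentrations. TGI is the concentration that stops growth completely.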

Test systems include MCF7 breast; UO-31 renal; 786-0 renal; PC-3 prostate; HT29 colon; MDA-MB-231 breast; OVCAR-3 ovarian; CCRF-CEM leukemia; NCI-H522 lung; HCT-15 colon; OVCAR-8 ovarian; HOP-62 NSCLC; UACC-62 melanoma; COLO 205 colon; SK-MEL-28 melanoma; SF-268 CNS; OVCAR-5 ovarian; RXF 393 renal; HCT-116 colon; SR leukemia.
Assay in all cases: inhibition of tumour cell growth, NCI panel, 48 h

On to `COC(=O)[C@@]1(NC(=O)C(CC(=O)OC(C)(C)C)NC(=O)OC(C)(C)C)C[C@H]1C` (some centres not stated), for which the TGI in the experiment with MCF7 breast, in the experiment with UO-31 renal, with 786-0 renal, in the experiment on PC-3 prostate, in the experiment with HT29 colon and in the experiment on MDA-MB-231 breast was greater than 100 µM each time. In addition, the TGI with OVCAR-3 ovarian, with CCRF-CEM leukemia, in the experiment on NCI-H522 lung, with HCT-15 colon, in the experiment on OVCAR-8 ovarian and with HOP-62 NSCLC was greater than 100 µM each time. Moreover, the TGI in the experiment with UACC-62 melanoma, with COLO 205 colon, in the experiment with SK-MEL-28 melanoma, with SF-268 CNS, in the experiment on OVCAR-5 ovarian and in the experiment with RXF 393 renal was greater than 100 µM each time. In the experiment with HCT-116 colon, this compound displayed a TGI greater than 100 µM.
As to `NC(=O)c1sc2nc3ccccc3n2c1N`, the TGI with MCF7 breast, with UO-31 renal, with 786-0 renal, in the experiment with PC-3 prostate, with HT29 colon and with MDA-MB-231 breast was greater than 100 µM in each case. For the same compound, the TGI with OVCAR-3 ovarian, in the experiment with CCRF-CEM leukemia, in the experiment with HCT-15 colon, in the experiment with OVCAR-8 ovarian, in the experiment on HOP-62 NSCLC and in the experiment on UACC-62 melanoma was greater than 100 µM throughout. Moreover, the TGI was greater than 100 µM with COLO 205 colon; greater than 100 µM with SK-MEL-28 melanoma; greater than 100 µM in the experiment with SF-268 CNS; greater than 100 µM with OVCAR-5 ovarian; 74.8 µM in the experiment on RXF 393 renal; greater than 100 µM in the experiment with HCT-116 colon.
For `C=C(CCC=C(C)C)C1CC=C(C)CC1` (configuration not stated), the TGI worked out at 42.2 µM in the experiment with MCF7 breast; 30.6 µM in the experiment with UO-31 renal; 35.7 µM in the experiment on 786-0 renal; 97.6 µM in the experiment with MDA-MB-231 breast; 81.2 µM with OVCAR-3 ovarian; 32.3 µM in the experiment on NCI-H522 lung. Also, the TGI was 39.6 µM in the experiment with HCT-15 colon; greater than 100 µM in the experiment on OVCAR-8 ovarian; 37.4 µM in the experiment with HOP-62 NSCLC; greater than 100 µM in the experiment on UACC-62 melanoma; 71.5 µM in the experiment on COLO 205 colon; greater than 100 µM in the experiment on SF-268 CNS. The TGI was greater than 100 µM with OVCAR-5 ovarian, 31.6 µM in the experiment with RXF 393 renal and 57.9 µM in the experiment with HCT-116 colon.
As for `Cc1nc(N(C(C)C)C(C)C)c(C(C)C)o1`, the TGI in the experiment on MCF7 breast, with UO-31 renal, in the experiment with 786-0 renal, in the experiment with PC-3 prostate, with HT29 colon and in the experiment on MDA-MB-231 breast was greater than 100 µM each time. The TGI in the experiment with OVCAR-3 ovarian, in the experiment with CCRF-CEM leukemia, in the experiment on NCI-H522 lung, in the experiment on HCT-15 colon, with OVCAR-8 ovarian and in the experiment with HOP-62 NSCLC was greater than 100 µM in each case. For the same compound, the TGI in the experiment with UACC-62 melanoma, with COLO 205 colon, with SK-MEL-28 melanoma, in the experiment on SF-268 CNS, in the experiment on OVCAR-5 ovarian and in the experiment on RXF 393 renal was greater than 100 µM throughout. This compound returned a TGI with HCT-116 colon greater than 100 µM.
As for `C=C(C)CCC1CC=[N+]([O-])OC1C(C)(C)C` (configuration not stated), the TGI with MCF7 breast was 89.9 µM; in the experiment with UO-31 renal, 85.7 µM; in the experiment with 786-0 renal, greater than 100 µM; in the experiment on HT29 colon, greater than 100 µM; in the experiment with MDA-MB-231 breast, 66.8 µM; in the experiment on OVCAR-3 ovarian it was greater than 100 µM. Besides, the TGI in the experiment with CCRF-CEM leukemia is 50.5 µM; in the experiment on NCI-H522 lung it was 58.5 µM; with HCT-15 colon, greater than 100 µM; in the experiment with OVCAR-8 ovarian, greater than 100 µM; in the experiment on HOP-62 NSCLC, greater than 100 µM; in the experiment on UACC-62 melanoma, greater than 100 µM. Besides, the TGI in the experiment on COLO 205 colon, in the experiment on SF-268 CNS, in the experiment with OVCAR-5 ovarian, in the experiment with RXF 393 renal, in the experiment with HCT-116 colon and with SR leukemia was greater than 100 µM each time.
Consider `BrCc1ccc(CBr)c2c1-c1c(CBr)ccc3ccc(CBr)c-2c13`, for which the TGI in the experiment on MCF7 breast, in the experiment on UO-31 renal, with 786-0 renal, with PC-3 prostate, with HT29 colon and in the experiment with MDA-MB-231 breast was greater than 100 µM in each case. For the same compound, the TGI in the experiment on OVCAR-3 ovarian, in the experiment on NCI-H522 lung, in the experiment with HCT-15 colon, in the experiment with OVCAR-8 ovarian, in the experiment with HOP-62 NSCLC and with UACC-62 melanoma was greater than 100 µM in each case. Further, the TGI in the experiment on SK-MEL-28 melanoma, with SF-268 CNS, in the experiment with OVCAR-5 ovarian, in the experiment on HCT-116 colon and with SR leukemia was greater than 100 µM in each case.
Take `O=C(Nc1ccc2[nH]c(C(=O)N3CC(CCl)c4ccc([N+](=O)[O-])cc43)cc2c1)c1cc2ccccc2o1` (configuration not stated): the TGI in the experiment with MCF7 breast, in the experiment on UO-31 renal, in the experiment on 786-0 renal, in the experiment on HT29 colon, in the experiment with MDA-MB-231 breast and in the experiment on OVCAR-3 ovarian was greater than 1100 µM in each case. The TGI in the experiment with CCRF-CEM leukemia, with NCI-H522 lung, with HCT-15 colon, in the experiment with OVCAR-8 ovarian, in the experiment with HOP-62 NSCLC and with UACC-62 melanoma was greater than 1100 µM each time. The TGI with COLO 205 colon, in the experiment on SK-MEL-28 melanoma, with SF-268 CNS, in the experiment with OVCAR-5 ovarian, in the experiment with RXF 393 renal and in the experiment with HCT-116 colon was greater than 1100 µM each time.
Consider `Nc1[nH]c(=O)[nH]c(=O)c1Cc1cccc(Cl)c1`, for which the TGI in the experiment with MCF7 breast was 48.8 µM; with UO-31 renal, greater than 100 µM; in the experiment on 786-0 renal, greater than 100 µM; in the experiment with PC-3 prostate, greater than 100 µM; in the experiment with HT29 colon, greater than 100 µM; with MDA-MB-231 breast, greater than 100 µM. Further, the TGI in the experiment on OVCAR-3 ovarian, in the experiment with NCI-H522 lung, in the experiment with HCT-15 colon, with OVCAR-8 ovarian, with HOP-62 NSCLC and in the experiment with UACC-62 melanoma was greater than 100 µM throughout. The TGI in the experiment with COLO 205 colon, in the experiment with SK-MEL-28 melanoma, in the experiment with SF-268 CNS, in the experiment with OVCAR-5 ovarian, in the experiment on RXF 393 renal and in the experiment on HCT-116 colon was greater than 100 µM in each case.
